pEC50, pIC50: −log10 of the molar value. Values joined by “and” are separate entries in the source; they are usually repeats but may differ in a detail not shown here. Identical values can stand only once. Positions of bridges follow the written chain, without caps; N, C: chain ends. No end group written: not given here.
Key:
SARS-CoV-2 Spike protein = SARS-CoV-2 Spike protein (Severe acute respiratory syndrome coronavirus 2, UniProt P0DTC2); assay: Ternary binding of SARS-CoV-2 Spike protein (293T cells expressing Spike-GFP, IgG-AF647, flow cytometry); type: cell-based; conditions: 293T cells expressing Spike-GFP; IgG-AF647 10 μg/ml; repeat values/batches listed separately; read-out: SARS-CoV-2 Ternary binding EC50
Description: 293T cells stably expressing SARS-CoV-2 Spike-GFP protein on their surface were incubated with a concentration range of compound for 30 minutes at 37° C.-5% CO2 in Roswell Park Memorial Institute Medium (RPMI)-5% low IgG serum with 10 μg/ml IgG-Alexa Fluor® 647 (AF647). The cells were washed twice using the same medium, resuspended in phosphate-buffered saline (PBS)-1% bovine serum albumin (BSA), and acquired on Attune™ NxT Flow Cytometer. In some embodiments, mean fluorescence intensity of AF647 as well as […] AF647 positive in GFP positive gate are reported as readouts in this assay.

[1] = target: T1, SARS-CoV-2 Spike A (wild-type) (Severe acute respiratory syndrome coronavirus 2, UniProt P0DTC2); assay: MSD ACE2 competition assay (inhibition of Spike binding with ACE2, ECL), A (wild-type); conditions: IC50 Wild Type, Wild Type Spike
T1 construct: purchased Meso Scale Diagnostics, LLC V-PLEX SARS-CoV-2 Panel 13 (ACE2) Kit / Panel 23 (ACE2) Kit

| Compound | pEC50 (SARS-CoV-2 Spike protein) | pIC50 [1] |
| --- | --- | --- |
| CC[C@H](C)[C@H](NC(=O)[C@H](CC(C)C)NC(=O)[C@H](CC(=O)O)NC(=O)[C@H](CO)NC(=O)[C@@H](NC(=O)[C@H](CCCNC(=N)N)NC(=O)[C@H](CCSC)NC(=O)[C@H](CO)NC(=O)[C@H](C)NC(=O)[C@H](CCC(=O)O)NC(=O)[C@H](C)NC(=O)[C@H](Cc1c[nH]cn1)NC(=O)CNC(=O)[C@H](CC(C)C)NC(=O)[C@H](CCC(=O)O)NC(=O)[C@H](CC(=O)O)NC(=O)[C@H](CC(C)C)NC(=O)[C@H](CC(C)C)NC(=O)[C@H](CCCNC(=N)N)NC(=O)[C@H](CCSC)NC(=O)[C@@H](NC(=O)[C@H](CCC(=O)O)NC(=O)[C@H](Cc1ccc(O)cc1)NC(=O)[C@@H](NC(=O)[C@H](CCCCN)NC(=O)[C@H](CCC(N)=O)NC(=O)[C@H](CC(C)C)NC(=O)[C@@H](NC(=O)[C@H](Cc1c[nH]c2ccccc12)NC(=O)[C@H](CCC(=O)O)NC(=O)[C@H](CCCCN)NC(=O)[C@@H](N)CC(=O)O)[C@@H](C)CC)[C@@H](C)CC)[C@@H](C)CC)C(C)C)C(=O)N[C@@H](Cc1ccc(O)cc1)C(=O)N[C@@H](CCC(=O)O)C(=O)N[C@@H](Cc1ccccc1)C(=O)N[C@@H](CCSC)C(=O)N[C@@H](CCCCN)C(=O)N[C@@H](CCCCN)C(=O)NCC(=O)N[C@@H](CCC(N)=O)C(=O)N[C@@H](C)C(=O)N1CCC[C@H]1C(=O)N[C@@H](CC(=O)O)C(=O)N[C@H]1CSSC[C@@H](C(=O)N[C@H](C(=O)O)[C@@H](C)O)NC(=O)[C@H](Cc2c[nH]c3ccccc23)NC(=O)[C@H](C(C)C)NC(=O)[C@H](CC(C)C)NC(=O)[C@H](CCC(=O)O)NC(=O)CNC(=O)[C@H](CC(C)C)NC(=O)[C@H](Cc2c[nH]cn2)NC(=O)[C@H](Cc2c[nH]c3ccccc23)NC(=O)[C@H](C)NC1=O [Compound 108] | 8.57 and 8.72 | 7.69 |
| ILQKIYEIMRLLDELGHAEASMRVSDLIYEFMKKDCAWHLGELVWCT (disulfide 36-46) [Compound 119] | 8.62 and 8.54 | 7.33 and 7.18 |
| Ac-ILQKIYEIMRLLDELGHAEASMRVSDLIYEFMKKDCAWHLGELVWCT (disulfide 36-46) [Compound 118] | 9.28 and 9.21 | 7.21 and 7.20 |
| CC[C@H](C)[C@H](NC(=O)[C@H](CC(C)C)NC(=O)[C@H](CC(=O)O)NC(=O)[C@H](CO)NC(=O)[C@@H](NC(=O)[C@H](CCCNC(=N)N)NC(=O)[C@H](CCSC)NC(=O)[C@H](CO)NC(=O)[C@H](C)NC(=O)[C@H](CCC(=O)O)NC(=O)[C@H](C)NC(=O)[C@H](Cc1c[nH]cn1)NC(=O)CNC(=O)[C@H](CC(C)C)NC(=O)[C@H](CCC(=O)O)NC(=O)[C@H](CC(=O)O)NC(=O)[C@H](CC(C)C)NC(=O)[C@H](CC(C)C)NC(=O)[C@H](CCCNC(=N)N)NC(=O)[C@H](CCSC)NC(=O)[C@@H](NC(=O)[C@H](CCC(=O)O)NC(=O)[C@H](Cc1ccc(O)cc1)NC(=O)[C@@H](NC(=O)[C@H](CCCCN)NC(=O)[C@H](CCC(N)=O)NC(=O)[C@H](CC(C)C)NC(=O)[C@@H](NC(=O)[C@H](Cc1c[nH]c2ccccc12)NC(=O)[C@H](CCC(=O)O)NC(=O)[C@H](CCCCN)NC(=O)[C@H](CC(=O)O)NC(=O)[C@@H](NC(=O)[C@@H]1CSSC[C@H](NC(=O)[C@H](CC(=O)O)NC(C)=O)C(=O)N[C@@H](C)C(=O)N[C@@H](Cc2c[nH]c3ccccc23)C(=O)N[C@@H](Cc2c[nH]cn2)C(=O)N[C@@H](CC(C)C)C(=O)NCC(=O)N[C@@H](CCC(=O)O)C(=O)N[C@@H](CC(C)C)C(=O)N[C@@H](C(C)C)C(=O)N[C@@H](Cc2c[nH]c3ccccc23)C(=O)N1)[C@@H](C)O)[C@@H](C)CC)[C@@H](C)CC)[C@@H](C)CC)C(C)C)C(=O)N[C@@H](Cc1ccc(O)cc1)C(=O)N[C@@H](CCC(=O)O)C(=O)N[C@@H](Cc1ccccc1)C(=O)N[C@@H](CCSC)C(=O)N[C@@H](CCCCN)C(=O)N[C@@H](CCCCN)C(=O)O [Compound 121] | 9.08 and 9.11 | 7.97 |
| CC[C@H](C)[C@H](NC(=O)[C@H](CC(C)C)NC(=O)[C@H](CC(=O)O)NC(=O)[C@H](CO)NC(=O)[C@@H](NC(=O)[C@H](CCCNC(=N)N)NC(=O)[C@H](CCSC)NC(=O)[C@H](CO)NC(=O)[C@H](C)NC(=O)[C@H](CCC(=O)O)NC(=O)[C@H](C)NC(=O)[C@H](Cc1c[nH]cn1)NC(=O)CNC(=O)[C@H](CC(C)C)NC(=O)[C@H](CCC(=O)O)NC(=O)[C@H](CC(=O)O)NC(=O)[C@H](CC(C)C)NC(=O)[C@H](CC(C)C)NC(=O)[C@H](CCCNC(=N)N)NC(=O)[C@H](CCSC)NC(=O)[C@@H](NC(=O)[C@H](CCC(=O)O)NC(=O)[C@H](Cc1ccc(O)cc1)NC(=O)[C@@H](NC(=O)[C@H](CCCCN)NC(=O)[C@H](CCC(N)=O)NC(=O)[C@H](CC(C)C)NC(=O)[C@@H](NC(=O)[C@H](Cc1c[nH]c2ccccc12)NC(=O)[C@H](CCC(=O)O)NC(=O)[C@H](CCCCN)NC(=O)[C@H](CC(=O)O)NC(=O)CCOCCOCCOCCOCCNC(=O)CCCC[C@@H]1SC[C@@H]2NC(=O)N[C@@H]21)[C@@H](C)CC)[C@@H](C)CC)[C@@H](C)CC)C(C)C)C(=O)N[C@@H](Cc1ccc(O)cc1)C(=O)N[C@@H](CCC(=O)O)C(=O)N[C@@H](Cc1ccccc1)C(=O)N[C@@H](CCSC)C(=O)N[C@@H](CCCCN)C(=O)N[C@@H](CCCCN)C(=O)NCC(=O)O [Compound 209] | 8.96 | – |
| CC[C@H](C)[C@H](NC(=O)[C@H](CC(C)C)NC(=O)[C@H](CC(=O)O)NC(=O)[C@H](CO)NC(=O)[C@@H](NC(=O)[C@H](CCCNC(=N)N)NC(=O)[C@H](CCSC)NC(=O)[C@H](CO)NC(=O)[C@H](C)NC(=O)[C@H](CCC(=O)O)NC(=O)[C@H](C)NC(=O)[C@H](Cc1c[nH]cn1)NC(=O)CNC(=O)[C@H](CC(C)C)NC(=O)[C@H](CCC(=O)O)NC(=O)[C@H](CC(=O)O)NC(=O)[C@H](CC(C)C)NC(=O)[C@H](CC(C)C)NC(=O)[C@H](CCCNC(=N)N)NC(=O)[C@H](CCSC)NC(=O)[C@@H](NC(=O)[C@H](CCC(=O)O)NC(=O)[C@H](Cc1ccc(O)cc1)NC(=O)[C@@H](NC(=O)[C@H](CCCCN)NC(=O)[C@H](CCC(N)=O)NC(=O)[C@H](CC(C)C)NC(=O)[C@@H](NC(=O)[C@H](Cc1c[nH]c2ccccc12)NC(=O)[C@H](CCC(=O)O)NC(=O)[C@H](CCCCN)NC(=O)[C@H](CC(=O)O)NC(C)=O)[C@@H](C)CC)[C@@H](C)CC)[C@@H](C)CC)C(C)C)C(=O)N[C@@H](Cc1ccc(O)cc1)C(=O)N[C@@H](CCC(=O)O)C(=O)N[C@@H](Cc1ccccc1)C(=O)N[C@@H](CCSC)C(=O)N[C@@H](CCCCN)C(=O)N[C@@H](CCCCN)C(=O)NCC(=O)NCCOCCNC(=O)[C@@H]1CSCC(=O)N[C@@H](C)C(=O)N[C@@H](CO)C(=O)N[C@@H](Cc2ccc(O)cc2)C(=O)N[C@@H](Cc2c[nH]cn2)C(=O)N[C@@H](CC(C)C)C(=O)NCC(=O)N[C@@H](CCC(=O)O)C(=O)N[C@@H](CC(C)C)C(=O)N[C@@H](C(C)C)C(=O)N[C@@H](Cc2c[nH]c3ccccc23)C(=O)N2Cc3ccccc3C[C@H]2C(=O)NC(C)(C)C(=O)N1 [Compound 159] | 8.52 and 8.55 | – |
| CC[C@H](C)[C@H](NC(C)=O)C(=O)N[C@@H](Cc1ccc(O)cc1)C(=O)N[C@@H](CCC(=O)O)C(=O)N[C@H](C(=O)N[C@@H](CCSC)C(=O)N[C@@H](CCCNC(=N)N)C(=O)N[C@@H](CC(C)C)C(=O)N[C@@H](CC(C)C)C(=O)N[C@@H](CC(=O)O)C(=O)N[C@@H](CCC(=O)O)C(=O)N[C@@H](CC(C)C)C(=O)NCC(=O)N[C@@H](Cc1c[nH]cn1)C(=O)N[C@@H](C)C(=O)N[C@@H](CCC(=O)O)C(=O)N[C@@H](C)C(=O)N[C@@H](CO)C(=O)N[C@@H](CCSC)C(=O)N[C@@H](CCCNC(=N)N)C(=O)N[C@H](C(=O)N[C@@H](CO)C(=O)N[C@@H](CC(=O)O)C(=O)N[C@@H](CC(C)C)C(=O)N[C@H](C(=O)N[C@@H](Cc1ccc(O)cc1)C(=O)N[C@@H](CCC(=O)O)C(=O)N[C@@H](Cc1ccccc1)C(=O)N[C@@H](CCSC)C(=O)N[C@@H](CCCCN)C(=O)N[C@@H](CCCCN)C(=O)NCC(=O)NCCOCCOCCOCCOCCOCCOCCOCCOCCC(=O)NCCOCCOCCOCCOCCOCCOCCOCCOCCC(=O)N[C@@H](CC(=O)O)C(=O)N[C@H]1CSSC[C@@H](C(=O)N[C@H](C(N)=O)[C@@H](C)O)NC(=O)[C@H](Cc2c[nH]c3ccccc23)NC(=O)[C@H](C(C)C)NC(=O)[C@H](CC(C)C)NC(=O)[C@H](CCC(=O)O)NC(=O)CNC(=O)[C@H](CC(C)C)NC(=O)[C@H](Cc2c[nH]cn2)NC(=O)[C@H](Cc2c[nH]c3ccccc23)NC(=O)[C@H](C)NC1=O)[C@@H](C)CC)C(C)C)[C@@H](C)CC [Compound 156] | < 7.00 | – |
| CC[C@H](C)[C@H](NC(=O)[C@H](Cc1c[nH]c2ccccc12)NC(=O)[C@H](CCC(=O)O)NC(=O)[C@H](CCCCN)NC(=O)[C@H](CC(=O)O)NC(C)=O)C(=O)N[C@@H](CC(C)C)C(=O)N[C@@H](CCC(N)=O)C(=O)N[C@@H](CCCCN)C(=O)N[C@H](C(=O)N[C@@H](Cc1ccc(O)cc1)C(=O)N[C@@H](CCC(=O)O)C(=O)N[C@H](C(=O)N[C@@H](CCSC)C(=O)N[C@@H](CCCNC(=N)N)C(=O)N[C@@H](CC(C)C)C(=O)N[C@@H](CC(C)C)C(=O)N[C@@H](CC(=O)O)C(=O)N[C@@H](CCC(=O)O)C(=O)N[C@@H](CC(C)C)C(=O)NCC(=O)N[C@@H](Cc1c[nH]cn1)C(=O)N[C@@H](C)C(=O)N[C@@H](CCC(=O)O)C(=O)N[C@@H](C)C(=O)N[C@@H](CO)C(=O)N[C@@H](CCSC)C(=O)N[C@@H](CCCNC(=N)N)C(=O)N[C@H](C(=O)N[C@@H](CO)C(=O)NCCOCCOCCOCCOCCOCCOCCOCCOCCC(=O)NCCOCCOCCOCCOCCOCCOCCOCCOCCC(=O)N[C@@H](CC(=O)O)C(=O)N[C@H]1CSSC[C@@H](C(=O)N[C@H](C(N)=O)[C@@H](C)O)NC(=O)[C@H](Cc2c[nH]c3ccccc23)NC(=O)[C@H](C(C)C)NC(=O)[C@H](CC(C)C)NC(=O)[C@H](CCC(=O)O)NC(=O)CNC(=O)[C@H](CC(C)C)NC(=O)[C@H](Cc2c[nH]cn2)NC(=O)[C@H](Cc2c[nH]c3ccccc23)NC(=O)[C@H](C)NC1=O)C(C)C)[C@@H](C)CC)[C@@H](C)CC [Compound 153] | < 8.00 | – |
